# Assays:
# 6-OHDA injected mice [1] = test: Anti-TH immunohistochemistry, 6-OHDA-induced striatal denervation; format: in vivo, mouse; conditions: one-way ANOVA, FIG. 3B
# Description: Immunohistochemistry analysis using anti-tyrosine hydroxylase (TH) antibody was performed in mouse midbrain sections to quantify 6-OHDA-induced striatal denervation in mice injected with 6-OHDA and non-injected (control) sides of the brain. […] In contrast, both the 6-OHDA/rapamycin-treated and the 6-OHDA/Formula II-treated sides of the brain show increased staining with the anti-TH antibody, as indicated by the dark shading in those figures. FIG. 3B presents the mean and standard error of the mean (SEM) of the integrated density of anti-TH antibody staining in the striatum, as well as statistical analysis of the results for the groups of mice.
# 6-OHDA injected mice [2] = test: Anti-TH immunohistochemistry, 6-OHDA-induced neuronal loss (TH-positive somas in SN); format: in vivo, mouse; conditions: one-way ANOVA, FIG. 4B
# Description: Immunohistochemistry analysis using anti-tyrosine hydroxylase (TH) antibody was also performed to quantify 6-OHDA-induced neuronal loss in mice injected with 6-OHDA and non-injected (control) sides of the brain. […] FIG. 4B presents the mean and standard error of the mean (SEM) as well as statistical analysis of the results.
smiles,measurement,setting,value
"CO[C@H]1C[C@@H]2CC[C@@H](C)[C@@](O)(O2)C(=O)C(=O)N2CCCC[C@H]2C(=O)O[C@H]([C@H](C)C[C@@H]2CC[C@@H](O)[C@H](OC)C2)CC(=O)[C@H](C)/C=C(\C)[C@@H](O)[C@@H](OC)C(=O)[C@H](C)C[C@H](C)/C=C/C=C/C=C/1C [rapamycin, Rapamycin, reference compound]","integrated density of anti-TH staining in striatum, p versus vehicle control",6-OHDA injected mice [1],< 0.05
same,"TH+ neuronal loss, p versus vehicle control",6-OHDA injected mice [2],< 0.001

# From patent US20210369684A1 (MOUNT TAM THERAPEUTICS, INC., priority 2018, published 2021)
